System: HeLa cells
Experiment: HeLa cell 24 hr ploidy assay (DNA content)
Assay type: cell-based
Conditions: Homo sapiens, HeLa, HeLa cells, 4N ploidy, average, read-out: 24h_4NPloidy EC50_IP (uM Avg)
Summary of the method: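 HeLa cells (1×10^4/well, MEM+10% FBS) cultured 24 h, treated with serially diluted compounds (0.25% DMSO final), then fixed, permeabilized and stained with Hoechst 33342 (0.5 ug/ml). Imaging quantified % 4N and >4N cells; EC50 IP and EC50 transit derived from dose curves.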

EC50 [µM] | Compound
0.019 | Cc1ccc(-c2nnc(Nc3ccc(Sc4ccnc5cc(C#N)sc45)cc3)c3ccccc23)cn1 [compound 461]
0.043 | c1ccc(-c2nnc(Nc3ccc(Sc4ccnc5cc[nH]c45)cc3)c3ccccc23)cc1 [compound 462]
0.01 | Clc1ccc(-c2nnc(Nc3ccc(Sc4ccnc5cc[nH]c45)cc3)c3ccccc23)cc1 [compound 463]
0.001 | Cc1csc(-c2nnc(Nc3ccc(Sc4ccnc5cc[nH]c45)cc3)c3ccccc23)c1 [compound 464]
0.02 | Clc1ccc(-c2nnc(Nc3ccc(Sc4ccnc5ccoc45)cc3)c3ccccc23)cc1 [compound 465]
0.086 | c1ccc(-c2nnc(Nc3ccc(Sc4ccnc5ccoc45)cc3)c3ccccc23)cc1 [compound 466]
0.016 | c1ccc2c(-c3ccc4c(c3)OCO4)nnc(Nc3ccc(Sc4ccnc5ccoc45)cc3)c2c1 [compound 467]
0.014 | Cc1csc(-c2nnc(Nc3ccc(Sc4ccnc5ccoc45)cc3)c3ccccc23)c1 [compound 468]
0.003 | COCCn1ccc2nccc(Sc3ccc(Nc4nnc(-c5ccc(Cl)cc5)c5ccccc45)cc3)c21 [compound 469]
< 0.0023 | COCCn1ccc2nccc(Sc3ccc(Nc4nnc(-c5cc(C)cs5)c5ccccc45)cc3)c21 [compound 470]
0.006 | CC(C)n1ccc2nccc(Sc3ccc(Nc4nnc(-c5ccc(Cl)cc5)c5ccccc45)cc3)c21 [compound 471]
0.007 | Cc1csc(-c2nnc(Nc3ccc(Sc4ccnc5ccn(C(C)C)c45)cc3)c3ccccc23)c1 [compound 472]
0.1 | COCCOc1ccc(-c2nnc(Nc3ccc(Sc4ccnc5cc(OC)cnc45)cc3)c3ccccc23)cc1OCCOC [compound 473]
0.024 | COCCOc1ccc(-c2nnc(Nc3ccc(Sc4ccnc5cc(OC)cnc45)cc3)c3ccccc23)cc1 [compound 474]
0.017 | COCCOCCOc1ccc2nccc(Sc3ccc(Nc4nnc(-c5ccc(Cl)cc5)c5ccccc45)cc3)c2n1 [compound 475]
0.14 | COCCOCCn1c(=O)ccc2nccc(Sc3ccc(Nc4nnc(-c5ccc(Cl)cc5)c5ccccc45)cc3)c21 [compound 476]
0.001 | COc1cnc2c(Sc3ccc(Nc4nnc(-c5ccc(C)c(N)c5)c5ccccc45)cc3)ccnc2c1 [compound 477]
0.381 | COC1CCN(c2nnc(Nc3ccc(Oc4ccnc5ccoc45)cc3)c3ccccc23)CC1 [compound 478]
0.009 | Cc1ccc(-c2nnc(Nc3ccc(Sc4ccnc5ccoc45)cc3)c3ccccc23)cc1N [compound 479]
0.112 | Cc1ccc(-c2nnc(Nc3ccc(Oc4ccnc5ccoc45)cc3)c3ccccc23)cc1N [compound 480]
0.032 | Cc1ccc(-c2nnc(Nc3ccc(Sc4ccnc5ccoc45)cc3)c3ccccc23)cn1 [compound 481]
0.036 | Cc1ccc(-c2nnc(Nc3ccc(Sc4ccnc5ccoc45)cc3)c3ccccc23)nc1 [compound 482]
0.102 | Clc1ccc(-c2nnc(Nc3ccc(Oc4ccnc5ccoc45)cc3)c3ccccc23)cc1 [compound 483]
> 1.2 | C[Si](C)(C)c1cc2nccc(Sc3ccc(Nc4nnc(Cl)c5ccccc45)cc3)c2o1 [compound 484]
0.069 | COc1ccc(-c2nnc(Nc3ccc(Sc4ccnc5ccoc45)cc3)c3ccccc23)cn1 [compound 485]

EC50 [µM] | Compound
0.002 | Clc1ccc(-c2nnc(Nc3ccc(Sc4ccnc5cc(C6CC6)oc45)cc3)c3ccccc23)cc1 [compound 486]
0.006 | Cc1ccc(-c2nnc(Nc3ccc(Sc4ccnc5cc(C6CC6)oc45)cc3)c3ccccc23)cc1N [compound 487]
0.241 | Cc1cccc(-c2nnc(Nc3ccc(Sc4ccnc5ccoc45)cc3)c3ccccc23)n1 [compound 488]
0.017 | N#Cc1cc2nccc(Sc3ccc(Nc4nnc(-c5ccc(Cl)cc5)c5ccccc45)cc3)c2o1 [compound 489]
0.009 | Cc1ccc(-c2nnc(Nc3ccc(Sc4ccnc5cc(C#N)oc45)cc3)c3ccccc23)cc1N [compound 490]
0.037 | Cc1cc2nccc(Sc3ccc(Nc4nnc(-c5ccc(Cl)cc5)c5ccccc45)cc3)c2o1 [compound 491]
0.021 | Cc1cc2nccc(Sc3ccc(Nc4nnc(-c5ccc(C)c(N)c5)c5ccccc45)cc3)c2o1 [compound 492]
0.016 | Clc1ccc(-c2nnc(Nc3ccc(Sc4ccnc5cccnc45)cc3)c3ccccc23)nc1 [compound 493]
0.009 | COc1cc2nccc(Sc3ccc(Nc4nnc(-c5cc(C)cs5)c5ccccc45)cc3)c2cn1 [compound 494]
0.024 | COc1cnc2c(Sc3ccc(Nc4nnc(-c5ccccc5F)c5ccccc45)cc3)ccnc2c1 [compound 495]
0.397 | FC(F)(F)Oc1ccc2c(Oc3ccc(Nc4nnc(-c5ccccc5)c5ccccc45)cc3)ccnc2c1 [compound 496]
0.079 | FC(F)(F)Oc1ccc2c(Sc3ccc(Nc4nnc(-c5ccccc5)c5ccccc45)cc3)ccnc2c1 [compound 497]
0.078 | FC(F)(F)Oc1ccc2c(Oc3ccc(Nc4nnc(-c5ccc(Cl)cc5)c5ccccc45)cc3)ccnc2c1 [compound 498]
0.052 | Cc1csc(-c2nnc(Nc3ccc(Sc4ccnc5cc(OC(F)(F)F)ccc45)cc3)c3ccccc23)c1 [compound 499]
> 1.2 | CN(c1ccc(Oc2ccnc3ccc(=O)[nH]c23)cc1)c1nnc(-c2ccc(Cl)cc2)c2ccccc12 [compound 500]
0.014 | COc1cnc2c(Sc3ccc(Nc4nnc(-c5ccc6occc6c5)c5ccccc45)cc3)ccnc2c1 [compound 501]
0.006 | COc1cnc2c(Sc3ccc(Nc4nnc(-c5ccc6cn(C)nc6c5)c5ccccc45)cc3)ccnc2c1 [compound 502]
0.014 | COc1cnc2c(Sc3ccc(Nc4nnc(N5CCN(C)CC5)c5ccccc45)cc3)ccnc2c1 [compound 503]
0.006 | COc1cnc2c(Sc3ccc(Nc4nnc(-c5ccc6nonc6c5)c5ccccc45)cc3)ccnc2c1 [compound 504]
0.022 | CCOc1nc(-c2nnc(Nc3ccc(Sc4ccnc5cc(OC)cnc45)cc3)c3ccccc23)cs1 [compound 505]
0.067 | COc1cnc2c(Sc3ccc(Nc4nnc(-c5cscn5)c5ccccc45)cc3)ccnc2c1 [compound 506]
0.018 | COc1cnc2c(Sc3ccc(Nc4nnc(N5CCN(CC(F)F)CC5)c5ccccc45)cc3)ccnc2c1 [compound 507]
0.072 | COc1cnc2c(Sc3ccc(Nc4nnc(NCCCSC)c5ccccc45)cc3)ccnc2c1 [compound 508]
0.008 | COc1ccc(-c2nnc(Nc3ccc(Sc4ccnc5cccnc45)cc3)c3ccccc23)cn1 [compound 509]
0.017 | Cc1csc(-c2nnc(Nc3ccc(Oc4ccnc5cccnc45)cc3)c3cc(F)c(F)cc23)c1 [compound 510]

EC50 [µM] | Compound
0.094 | COc1cnc2c(Sc3ccc(Nc4nnc(OC(C)C)c5ccccc45)cc3)ccnc2c1 [compound 511]
0.033 | CCOc1nnc(Nc2ccc(Sc3ccnc4cc(OC)cnc34)cc2)c2ccccc12 [compound 512]
0.059 | COc1cnc2c(Sc3ccc(Nc4nnc(OCC(F)(F)F)c5ccccc45)cc3)ccnc2c1 [compound 513]
0.02 | COc1cnc2c(Sc3ccc(Nc4nnc(SC)c5ccccc45)cc3)ccnc2c1 [compound 514]
0.018 | COCCOc1nnc(Nc2ccc(Sc3ccnc4cc(OC)cnc34)cc2)c2ccccc12 [compound 515]
0.025 | COc1cnc2c(Sc3ccc(Nc4nnc(-c5cccc(Cl)c5)c5ccccc45)cc3)ccnc2c1 [compound 516]
0.011 | c1ccc2c(Sc3ccc(Nc4nnc(-c5ccc6c(c5)OCO6)c5ccccc45)cc3)ccnc2c1 [compound 517]
0.016 | Clc1cccc(-c2nnc(Nc3ccc(Sc4ccnc5ccsc45)cc3)c3ccccc23)c1 [compound 518]
0.009 | COc1cnc2c(Sc3ccc(Nc4nnc(-c5ccccc5)c5ccccc45)cc3F)ccnc2c1 [compound 519]
0.021 | COc1cnc2c(Sc3ccc(Nc4nnc(N5CCCC5)c5ccccc45)cc3)ccnc2c1 [compound 521]
0.001 | COc1cnc2c(Sc3ccc(Nc4nnc(-c5ccc6c(c5)OCO6)c5ccccc45)cc3F)ccnc2c1 [compound 522]
0.006 | COc1cnc2c(Sc3ccc(Nc4nnc(N5CCC(C(F)(F)F)CC5)c5ccccc45)cc3)ccnc2c1 [compound 523]
0.004 | COc1cnc2c(Sc3ccc(Nc4nnc(N5CCC(Cl)CC5)c5ccccc45)cc3)ccnc2c1 [compound 527]
0.009 | COc1cnc2c(Sc3ccc(Nc4nnc(-c5cc(C)cs5)c5ccccc45)cc3F)ccnc2c1 [compound 528]
0.006 | COc1cnc2c(Sc3ccc(Nc4nnc(-c5ccc(C)c(OC)c5)c5ccccc45)cc3)ccnc2c1 [compound 529]
0.001 | COc1cnc2c(Sc3ccc(Nc4nnc(-c5ccc6c(c5)OCO6)c5ccccc45)cc3)ccnc2c1 [compound 530]
0.049 | COc1cnc2c(Sc3ccc(Nc4nnc(N5CCC(F)(F)CC5)c5ccccc45)cc3)ccnc2c1 [compound 531]
0.02 | COc1cnc2c(Sc3ccc(Nc4nnc(N5CCC[C@@H](OC)C5)c5ccccc45)cc3)ccnc2c1 [compound 532]
0.062 | COCCNc1nnc(Nc2ccc(Sc3ccnc4cc(OC)cnc34)cc2)c2ccccc12 [compound 533]
0.006 | COC1CCN(c2nnc(Nc3ccc(Sc4ccnc5cc(C#N)ccc45)cc3)c3ccccc23)CC1 [compound 534]
0.026 | COCCCNc1nnc(Nc2ccc(Sc3ccnc4cc(OC)cnc34)cc2)c2ccccc12 [compound 535]
0.031 | COc1cnc2c(Sc3ccc(Nc4nnc(Cl)c5ccccc45)cc3)ccnc2c1 [compound 536]
0.002 | COc1cnc2c(Sc3ccc(Nc4nnc(NCCc5ccccn5)c5ccccc45)cc3)ccnc2c1 [compound 537]
0.178 | COc1cnc2c(Sc3ccc(Nc4nnc(N5CCC(N6CCCC6)CC5)c5ccccc45)cc3)ccnc2c1 [compound 538]
